Assay results: patent US8822503B2, “2-pyridone compounds” (Taisho Pharmaceutical Co., Ltd, priority 2009, dated 2014)

target: T1, human liver GK (Homo sapiens, UniProt P35557); experiment: GK activation test; type: biochemical; conditions: test compound concentration needed to activate 50% of maximum activation ability; 4 mM 14C-labeled glucose, 2 mM ATP, room temperature, 20 minutes
T1 construct: GST (glutathione S-transferase) (N); made in house; host or cells: E. coli
T1 sequence (P35557 1-466 isoform P35557-2): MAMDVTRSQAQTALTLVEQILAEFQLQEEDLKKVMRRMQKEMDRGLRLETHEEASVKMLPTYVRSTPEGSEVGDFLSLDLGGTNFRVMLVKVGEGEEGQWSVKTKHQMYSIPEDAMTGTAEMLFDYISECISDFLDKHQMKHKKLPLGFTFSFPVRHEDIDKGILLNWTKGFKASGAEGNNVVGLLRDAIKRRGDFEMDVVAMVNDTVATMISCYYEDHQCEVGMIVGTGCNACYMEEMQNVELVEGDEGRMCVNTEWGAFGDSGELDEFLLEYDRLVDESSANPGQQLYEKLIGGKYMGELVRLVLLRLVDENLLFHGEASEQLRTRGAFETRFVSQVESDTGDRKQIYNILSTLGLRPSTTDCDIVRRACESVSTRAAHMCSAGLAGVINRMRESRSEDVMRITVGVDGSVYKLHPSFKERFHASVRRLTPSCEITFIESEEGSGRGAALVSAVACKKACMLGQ
In short: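 GST-tagged human liver GK from E. coli (0.24 μg/well) with 4 mM 14C-glucose, 2 mM ATP in Hepes-KOH pH 7.1, KCl, MgCl2, DTT, 1% DMSO, 20 min room temperature. Labeled glucose 6-phosphate captured on anion resin, eluted and counted. EC50 = concentration giving half of maximal activation.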

| Structure (SMILES) | EC50 [nM] |
| --- | --- |
| O=C1CC[C@H](/C=C(\c2ccc(OC(F)(F)F)c(Cl)c2)c2ccc(C3CC3)c(=O)[nH]2)N1 [Example 4-128, 6-{(E)-1-[3-Chloro-4-(trifluoromethoxy)phenyl]-2-[(2R)-5-oxopyrrolidin-2-yl]ethenyl}-3-cyclopropylpyridin-2(1H)-one] | 10 to 500 |
| O=C1CC[C@H](/C=C(\c2ccc(Cl)c(OC(F)(F)F)c2)c2ccc(C3CC3)c(=O)[nH]2)N1 [Example 4-129, 6-{(E)-1-[4-Chloro-3-(trifluoromethoxy)phenyl]-2-[(2R)-5-oxopyrrolidin-2-yl]ethenyl}-3-cyclopropylpyridin-2(1H)-one] | 500 to 3000 |
| O=C1CC[C@H](/C=C(\c2ccc(OC3CCOCC3)c(Cl)c2)c2ccc(C3CC3)c(=O)[nH]2)N1 [Example 4-143, 6-{(E)-1-[3-Chloro-4-(tetrahydro-2H-pyran-4-yloxy)phenyl]-2-[(2R)-5-oxopyrrolidin-2-yl]ethenyl}-3-cyclopropylpyridin-2(1H)-one] | 10 to 500 |
| CN1C(=O)CC[C@@H]1/C=C(\c1ccc(C(C)(C)C)cc1)c1ccc(Cl)c(=O)[nH]1 [Example 4-146, 6-{(E)-1-(4-tert-Butylphenyl)-2-[(2R)-1-methyl-5-oxopyrrolidin-2-yl]ethenyl}-3-chloropyridin-2(1H)-one] | 10 to 500 |
| CC(C)c1ccc(/C(=C\[C@H]2CCC(=O)N2C)c2ccc(Cl)c(=O)[nH]2)cc1 [Example 4-147, 3-Chloro-6-{(E)-2-[(2R)-1-methyl-5-oxopyrrolidin-2-yl]-1-[4-(propan-2-yl)phenyl]ethenyl}pyridin-2(1H)-one] | 10 to 500 |
| COc1cc(C(C)(C)C)ccc1/C(=C\[C@H]1CCC(=O)N1)c1ccc(Cl)c(=O)[nH]1 [Example 4-148, 6-{(E)-1-(4-tert-Butyl-2-methoxyphenyl)-2-[(2R)-5-oxopyrrolidin-2-yl]ethenyl}-3-chloropyridin-2(1H)-one] | 500 to 3000 |
| O=C1CC[C@H](/C=C(\c2ccc3ccccc3c2)c2ccc(Cl)c(=O)[nH]2)N1 [Example 4-149, 3-Chloro-6-{(E)-1-(naphthalen-2-yl)-2-[(2R)-5-oxopyrrolidin-2-yl]ethenyl}pyridin-2(1H)-one] | 500 to 3000 |
| O=C1CC[C@H](/C=C(/c2ccc(Cl)c(=O)[nH]2)c2cccc3ccccc23)N1 [Example 4-150, 3-Chloro-6-{(E)-1-(naphthalen-1-yl)-2-[(2R)-5-oxopyrrolidin-2-yl]ethenyl}pyridin-2(1H)-one] | 3000 to 10000 |
| O=C1CC[C@H](/C=C(\c2ccc(-c3ccccc3)cc2)c2ccc(Cl)c(=O)[nH]2)N1 [Example 4-151, 6-{(E)-1-(Biphenyl-4-yl)-2-[(2R)-5-oxopyrrolidin-2-yl]ethenyl}-3-chloropyridin-2(1H)-one] | 500 to 3000 |
| O=C1CC[C@H](/C=C(\c2ccc(Oc3ccccc3)cc2)c2ccc(Cl)c(=O)[nH]2)N1 [Example 4-152, 3-Chloro-6-[(E)-2-[(2R)-5-oxopyrrolidin-2-yl]-1-(4-phenoxyphenyl)ethenyl]pyridin-2(1H)-one] | 10 to 500 |
| NC(=O)c1cccc(/C(=C\[C@H]2CCC(=O)N2)c2ccc(Cl)c(=O)[nH]2)c1 [Example 4-153, 3-{(E)-1-(5-Chloro-6-oxo-1,6-dihydropyridin-2-yl)-2-[(2R)-5-oxopyrrolidin-2-yl]ethenyl}benzamide] | 3000 to 10000 |
| O=C1CC[C@H](/C=C(\c2ccc(OCc3ccccc3)cc2)c2ccc(Cl)c(=O)[nH]2)N1 [Example 4-154, 6-{(E)-1-[4-(Benzyloxy)phenyl]-2-[(2R)-5-oxopyrrolidin-2-yl]ethenyl}-3-chloropyridin-2(1H)-one] | 500 to 3000 |
| CC(C)NC(=O)Nc1ccc(/C(=C\[C@H]2CCC(=O)N2)c2ccc(Cl)c(=O)[nH]2)cc1 [Example 4-156, 1-(4-{(E)-1-(5-Chloro-6-oxo-1,6-dihydropyridin-2-yl)-2-[(2R)-5-oxopyrrolidin-2-yl]ethenyl}phenyl)-3-propan-2-ylurea] | 3000 to 10000 |

Other lines, results leading:

| EC50 [nM] | Structure (SMILES) |
| --- | --- |
| 500 to 3000 | O=C1CC[C@H](/C=C(\c2ccc(Cl)c(OC(F)F)c2)c2ccc(C3CC3)c(=O)[nH]2)N1 [Example 4-130, 6-{(E)-1-[4-Chloro-3-(difluoromethoxy)phenyl]-2-[(2R)-5-oxopyrrolidin-2-yl]ethenyl}-3-cyclopropylpyridin-2(1H)-one] |
| 10 to 500 | O=C1CC[C@H](/C=C(\c2ccc(C(F)F)c(F)c2)c2ccc(C3CC3)c(=O)[nH]2)N1 [Example 4-131, 3-Cyclopropyl-6-{(E)-1-[4-(difluoromethyl)-3-fluorophenyl]-2-[(2R)-5-oxopyrrolidin-2-yl]ethenyl}pyridin-2(1H)-one] |
| 10 to 500 | O=C1CC[C@H](/C=C(\c2ccc(C(F)F)c(Cl)c2)c2ccc(C3CC3)c(=O)[nH]2)N1 [Example 4-132, 6-{(E)-1-[3-Chloro-4-(difluoromethyl)phenyl]-2-[(2R)-5-oxopyrrolidin-2-yl]ethenyl}-3-cyclopropylpyridin-2(1H)-one] |
| 10 to 500 | Cc1cc(/C(=C\[C@H]2CCC(=O)N2)c2ccc(C3CC3)c(=O)[nH]2)ccc1C(F)F [Example 4-133, 3-Cyclopropyl-6-{(E)-1-[4-(difluoromethyl)-3-methylphenyl]-2-[(2R)-5-oxopyrrolidin-2-yl]ethenyl}pyridin-2(1H)-one] |
| 10 to 500 | COc1ccc(/C(=C\[C@H]2CCC(=O)N2)c2ccc(C3CC3)c(=O)[nH]2)cc1C(F)(F)F [Example 4-134, 3-Cyclopropyl-6-{(E)-1-[4-methoxy-3-(trifluoromethyl)phenyl]-2-[(2R)-5-oxopyrrolidin-2-yl]ethenyl}pyridin-2(1H)-one] |
| 10 to 500 | COc1cc(/C(=C\[C@H]2CCC(=O)N2)c2ccc(C3CC3)c(=O)[nH]2)ccc1C(F)F [Example 4-135, 3-Cyclopropyl-6-{(E)-1-[4-(difluoromethyl)-3-methoxyphenyl]-2-[(2R)-5-oxopyrrolidin-2-yl]ethenyl}pyridin-2(1H)-one] |
| 10 to 500 | O=C1CC[C@H](/C=C(\c2ccc(S(=O)(=O)N3CCCC3)cc2)c2ccc(C3CC3)c(=O)[nH]2)N1 [Example 4-136, 3-Cyclopropyl-6-{(E)-2-[(2R)-5-oxopyrrolidin-2-yl]-1-[4-(pyrrolidin-1-ylsulfonyl)phenyl]ethenyl}pyridin-2(1H)-one] |
| 10 to 500 | NS(=O)(=O)c1ccc(/C(=C\[C@H]2CCC(=O)N2)c2ccc(C3CC3)c(=O)[nH]2)cc1 [Example 4-137, 4-{(E)-1-(5-Cyclopropyl-6-oxo-1,6-dihydropyridin-2-yl)-2-[(2R)-5-oxopyrrolidin-2-yl]ethenyl}benzenesulfonamide] |
| 10 to 500 | O=C1CC[C@H](/C=C(\c2ccc(S(=O)(=O)N3CCOCC3)cc2)c2ccc(C3CC3)c(=O)[nH]2)N1 [Example 4-138, 3-Cyclopropyl-6-{(E)-1-[4-(morpholin-4-ylsulfonyl)phenyl]-2-[(2R)-5-oxopyrrolidin-2-yl]ethenyl}pyridin-2(1H)-one] |
| 10 to 500 | CN(C)S(=O)(=O)Nc1ccc(/C(=C\[C@H]2CCC(=O)N2)c2ccc(C3CC3)c(=O)[nH]2)cc1 [Example 4-139, N′-(4-{(E)-1-(5-Cyclopropyl-6-oxo-1,6-dihydropyridin-2-yl)-2-[(2R)-5-oxopyrrolidin-2-yl]ethenyl}phenyl)-N,N-dimethylsulfuric acid diamide] |
| 10 to 500 | CN(CCO)S(=O)(=O)c1ccc(/C(=C\[C@H]2CCC(=O)N2)c2ccc(C3CC3)c(=O)[nH]2)cc1 [Example 4-140, 4-{(E)-1-(5-Cyclopropyl-6-oxo-1,6-dihydropyridin-2-yl)-2-[(2R)-5-oxopyrrolidin-2-yl]ethenyl}-N-(2-hydroxyethyl)-N-methylbenzenesulfonamide] |
| 10 to 500 | O=C1CC[C@H](/C=C(\c2ccc(SC(F)(F)F)cc2)c2ccc(C3CC3)c(=O)[nH]2)N1 [Example 4-141, 3-Cyclopropyl-6-[(E)-2-[(2R)-5-oxopyrrolidin-2-yl]-1-{4-[(trifluoromethyl)sulfanyl]phenyl}ethenyl]pyridin-2(1H)-one] |
| 500 to 3000 | CS(=O)(=O)c1ccc(/C(=C\[C@H]2CCC(=O)N2)c2ccc(C3CC3)c(=O)[nH]2)cn1 [Example 4-142, 3-Cyclopropyl-6-{(E)-1-[6-(methylsulfonyl)pyridin-3-yl]-2-[(2R)-5-oxopyrrolidin-2-yl]ethenyl}pyridin-2(1H)-one] |
| 3000 to 10000 | O=C1CC[C@H](/C=C(\c2ccncc2)c2ccc(C3CC3)c(=O)[nH]2)N1 [Example 4-144, 3-Cyclopropyl-6-[(E)-2-[(2R)-5-oxopyrrolidin-2-yl]-1-(pyridin-4-yl)ethenyl]pyridin-2(1H)-one] |
| 10 to 500 | O=C1CC[C@H](/C=C(\c2ccc(O)c(Cl)c2)c2ccc(C3CC3)c(=O)[nH]2)N1 [Example 4-145, 6-{(E)-1-(3-Chloro-4-hydroxyphenyl)-2-[(2R)-5-oxopyrrolidin-2-yl]ethenyl}-3-cyclopropylpyridin-2(1H)-one] |
| 500 to 3000 | CS(=O)(=O)Nc1ccc(/C(=C\[C@H]2CCC(=O)N2)c2ccc(Cl)c(=O)[nH]2)cc1 [Example 4-155, N-(4-{(E)-1-(5-Chloro-6-oxo-1,6-dihydropyridin-2-yl)-2-[(2R)-5-oxopyrrolidin-2-yl]ethenyl}phenyl)methanesulfonamide] |
